We go through seven compounds from ChEMBL document CHEMBL5154858, “Pocket-to-Lead: Structure-Based De Novo Design of Novel Non-peptidic HIV-1 Protease Inhibitors Using the Ligand Binding Pocket as a Template” (J Med Chem, 2022).

Molecules are shown by their SMILES.

The target of assay [1] is Human immunodeficiency virus type 1 protease (Human immunodeficiency virus 1, UniProt Q72874). Briefly: Inhibition of wild type HIV1 protease expressed in Escherichia coli BL21 DE3 assessed as cleavage of fluorogenic substrate using EDANS-RESGIFLETSKR-DABCYL preincubated for 15 mins with compound followed by substrate addition and measured after 60 mins by microplate reader analysis.

In assay [2] the test system is Human immunodeficiency virus 1. Briefly: Antiviral activity against HIV-1 IIIB infected in human MT4 cells assessed as inhibition of virus-induced cell death preincubated for 1 hr with compound followed by viral infection measured after 5 days by MTT assay. The assay is classed as functional, organism-based. The conditions noted are these: Human immunodeficiency virus 1, IIIB.

Take `CCC[C@]1(c2ccc(S(C)(=O)=O)cc2)C(=O)N(Cc2ccc(OC)cc2)C[C@@H]1O` (mixture of isomers): in assay [1], the IC50 is 32 µM.
Same read-out and setting: then `COc1ccc(CN2C[C@@H](O)[C@@](Cc3ccc(F)cc3)(c3ccc(S(C)(=O)=O)cc3)C2=O)cc1` (mixture of isomers), with 77 µM.
In the case of `COc1ccc(CN2C[C@H](O)[C@@](CCC(C)C)(c3ccc(S(C)(=O)=O)cc3)C2=O)cc1` (mixture of isomers), the IC50 in assay [1] worked out at 2 µM. Moreover, in assay [2], the concentration giving a half-maximal response (EC50) is over 20 µM.
With `COc1ccc(CN2C[C@H](O)[C@@](CC(C)C)(c3ccc(S(C)(=O)=O)cc3)C2=O)cc1` (mixture of isomers), the IC50 in assay [1] is 34 µM.
`COc1ccc(CN2C[C@H](O)[C@@](CCC(C)C)(c3ccc(S(C)(=O)=O)cc3OC(C)C)C2=O)cc1` (mixture of isomers): the IC50 in assay [1] was found to be 0.082 µM. The EC50 in assay [2] stood at 11 µM.
For `COc1ccc(CN2C[C@H](O)[C@@](CCC(C)C)(c3ccc(S(C)(=O)=O)cc3O[C@@H](C)CO)C2=O)cc1` (mixture of isomers) the same measures were 0.0071 µM and 0.86 µM.
For the compound `COc1ccc(CN2C[C@H](O)[C@@](Cc3ccc(F)cc3)(c3ccc(S(C)(=O)=O)cc3)C2=O)cc1` (racemic), the IC50 in assay [1] worked out at 54 µM.
